US20230271954A1 (Gossamer Bio Services, Inc., priority 2020, published 2023)

Columns and labels:
DGKζ = biological target: T1, DGKζ (Homo sapiens, UniProt Q13574); assay: DGKζ biochemical assay (ADP-Glo); settings: read-out: DGK ζ IC50
T1 construct: purchased Carna 12-110

DGKα = DGKα (Homo sapiens, UniProt P23743); assay: DGKα biochemical assay (ADP-Glo); settings: read-out: DGK α IC50
Summary of the method: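 ADP-Glo kinase assay using OAG/PS (1:2) lipid substrate, sonicated, in HEPES pH 7.0 buffer with MgCl2, CaCl2, DTT, BSA, Triton X-100. Enzyme preincubated with compound 30 min at RT; substrate with ATP (DGKα: 400 μM) added, 45 min RT. Luminescence read; % inhibition vs DMSO and no-enzyme controls.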

T1 sequence (Q13574 1-929 isoform Q13574-4): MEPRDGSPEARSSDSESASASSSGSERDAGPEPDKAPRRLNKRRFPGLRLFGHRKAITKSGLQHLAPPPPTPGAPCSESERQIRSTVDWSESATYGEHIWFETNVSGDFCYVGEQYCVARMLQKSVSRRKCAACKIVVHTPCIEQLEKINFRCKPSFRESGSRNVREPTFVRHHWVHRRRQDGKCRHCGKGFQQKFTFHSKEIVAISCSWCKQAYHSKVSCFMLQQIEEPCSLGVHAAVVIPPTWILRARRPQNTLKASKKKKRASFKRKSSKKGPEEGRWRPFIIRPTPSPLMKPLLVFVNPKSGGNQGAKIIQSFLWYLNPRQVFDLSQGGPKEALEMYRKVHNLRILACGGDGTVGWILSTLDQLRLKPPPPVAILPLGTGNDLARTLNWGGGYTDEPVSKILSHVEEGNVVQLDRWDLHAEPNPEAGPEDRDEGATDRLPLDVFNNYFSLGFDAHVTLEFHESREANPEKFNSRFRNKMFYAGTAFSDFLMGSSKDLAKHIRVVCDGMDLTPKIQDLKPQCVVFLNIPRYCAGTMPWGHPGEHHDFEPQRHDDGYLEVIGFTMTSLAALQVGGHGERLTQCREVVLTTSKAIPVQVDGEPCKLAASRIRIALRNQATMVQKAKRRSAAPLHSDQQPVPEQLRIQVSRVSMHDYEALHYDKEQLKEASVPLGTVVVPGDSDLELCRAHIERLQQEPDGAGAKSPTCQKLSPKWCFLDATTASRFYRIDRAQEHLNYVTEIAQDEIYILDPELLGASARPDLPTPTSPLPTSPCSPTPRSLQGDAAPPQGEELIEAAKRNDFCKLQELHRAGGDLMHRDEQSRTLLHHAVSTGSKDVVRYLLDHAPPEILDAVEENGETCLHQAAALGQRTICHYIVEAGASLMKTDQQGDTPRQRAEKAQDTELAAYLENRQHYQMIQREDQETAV
Sequence of DGKα (P23743 whole entry): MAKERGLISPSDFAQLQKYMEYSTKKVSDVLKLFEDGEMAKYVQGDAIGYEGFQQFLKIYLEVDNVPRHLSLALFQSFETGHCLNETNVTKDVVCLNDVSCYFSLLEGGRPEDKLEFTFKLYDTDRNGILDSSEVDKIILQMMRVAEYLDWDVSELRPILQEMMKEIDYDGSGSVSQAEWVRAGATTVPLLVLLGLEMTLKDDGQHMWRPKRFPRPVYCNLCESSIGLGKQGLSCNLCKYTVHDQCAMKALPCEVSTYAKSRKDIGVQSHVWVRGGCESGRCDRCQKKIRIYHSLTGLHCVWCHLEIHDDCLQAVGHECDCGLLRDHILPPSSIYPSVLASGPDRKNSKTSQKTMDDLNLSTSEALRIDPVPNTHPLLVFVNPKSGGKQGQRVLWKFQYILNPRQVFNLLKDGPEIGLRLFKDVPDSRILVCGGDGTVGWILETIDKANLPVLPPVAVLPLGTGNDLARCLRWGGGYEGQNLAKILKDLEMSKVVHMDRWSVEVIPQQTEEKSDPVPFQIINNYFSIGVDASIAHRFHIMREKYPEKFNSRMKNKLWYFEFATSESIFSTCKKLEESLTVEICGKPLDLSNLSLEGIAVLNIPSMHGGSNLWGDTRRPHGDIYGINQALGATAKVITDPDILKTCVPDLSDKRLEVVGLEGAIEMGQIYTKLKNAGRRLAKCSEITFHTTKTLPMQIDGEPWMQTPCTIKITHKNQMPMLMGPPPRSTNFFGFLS

Structure (SMILES) | IC50 (DGKζ) | IC50 (DGKα)
Cn1c(=O)c(C#N)c(N(C)[C@H]2CC[C@@H](N(CC3CCOC3)c3ccc(F)cc3)CC2)c2nc(C#N)ccc21 (relative stereo) [Example 55, cis-8-((4-((4-fluorophenyl)((tetrahydrofuran-3-yl)methyl)amino)cyclohexyl)(methyl)amino)-5-methyl-6-oxo-5,6-dihydro-1,5-naphthyridine-2,7-dicarbonitrile] | 10 to 100 nM | < 10 nM
Cn1c(=O)cc(N(C)[C@H]2CC[C@H](N(CC3CC3)c3ccc(F)c(OC(F)F)c3)CC2)c2nc(C#N)ccc21 [Example 80] | ≥ 1000 nM | ≥ 1000 nM
Cn1c(=O)cc(N(C)[C@H]2CC[C@@H](N(CC3COCCO3)c3ccc(F)cc3)CC2)c2nc(C#N)ccc21 (stereo partly drawn) [Example 163, cis-8-((-4-(((1,4-dioxan-2-yl)methyl)(4-fluorophenyl)amino)cyclohexyl)(methyl)amino)-5-methyl-6-oxo-5,6-dihydro-1,5-naphthyridine-2-carbonitrile] | 100 to 1000 nM | < 10 nM
COc1cc(F)ccc1N(CC1CCC1)[C@H]1CC[C@H](N(C)c2c(C#N)c(=O)n(C)c3ccc(C#N)nc23)CC1 [Example 120, trans-8-((-4-((cyclobutylmethyl)(4-fluoro-2-methoxyphenyl)amino)cyclohexyl)(methyl)amino)-5-methyl-6-oxo-5,6-dihydro-1,5-naphthyridine-2,7-dicarbonitrile] | 10 to 100 nM | 100 to 1000 nM

Next, values leading:

IC50 (DGKζ) | IC50 (DGKα) | Structure (SMILES)
≥ 1000 nM | 100 to 1000 nM | CC(C)CN(c1ccc(F)cc1)[C@H]1CC[C@@H](N(C)c2c(C#N)c(=O)n(C)c3ccc(Cl)nc23)CC1 [Example 48, cis-6-chloro-4-((-4-((4-fluorophenyl)(isobutyl)amino)cyclohexyl)(methyl)amino)-1-methyl-2-oxo-1,2-dihydro-1,5-naphthyridine-3-carbonitrile]
≥ 1000 nM | < 10 nM | Cn1c(=O)c(C#N)c(N[C@H]2CC[C@H](N(CC3CC3)c3ccccc3)CC2)c2nc(Cl)ccc21 [Example 3B, trans-6-Chloro-4-((4-((cyclopropylmethyl)(phenyl)amino)cyclohexyl)amino)-1-methyl-2-oxo-1,2-dihydro-1,5-naphthyridine-3-carbonitrile]
≥ 1000 nM | ≥ 1000 nM | Cc1cc2c(cc1N(CC1CCC1)[C@H]1CC[C@@H](N(C)c3c(C#N)c(=O)n(C)c4ccc(Cl)nc34)CC1)OCO2 [Example 151, cis-6-chloro-4-((4-((cyclobutylmethyl)(6-methylbenzo[d][1,3]dioxol-5-yl)amino)cyclohexyl) (methyl)amino)-1-methyl-2-oxo-1,2-dihydro-1,5-naphthyridine-3-carbonitrile]
